Test results from patent US20260042734A1, “HETEROCYCLIC RING-SUBSTITUTED AROMATIC COMPOUND, PREPARATION METHOD THEREFOR, AND USE THEREOF” (SHANGHAI HENLIUS BIOTECH, INC., priority 2023, published 2026).

Biological target: human Kv1.3 (hKv1.3) channels (Homo sapiens (Human), UniProt P22001)
Assay: Electrophysiological (whole-cell patch clamp) determination of inhibitory activity on Kv1.3 channels
Assay type: cell-based
Conditions: HEK293T cells expressing hKv1.3; for inhibition at 0.01 µM: HEK-293T, compound concentration 10 nM, peak current inhibition, read-out: 10 nM inhibition rate (Kv1.3); for IC50: Hill fit of peak current inhibition
Description: Test Example 1: Determination of Inhibitory Activity of Compounds on Kv1.3 (hKv1.3) Channels
Electrophysiological Testing
Potassium currents were measured using HEK293T cells expressing human Kv1.3 (hKv1.3) channels.
Prior to the start of electrophysiological experiments, Kv1.3 cell lines should be maintained within 70% of the maximum density in the logarithmic growth phase. All reagents should be pre-warmed to 37° C. before use. • 1) Aspirate the spent medium from the 6 cm culture dish. • 2) Add 1 mL of PBS, gently rock the dish to rinse the bottom, and then remove the PBS. • 3) Add 1 mL of trypsin, and gently rock the dish to ensure the trypsin covers all the cells. • 4) Incubate at 37° C. for 2-3 minutes, and then gently pipette the cells to suspend the adherent cells. • 5) Transfer the cell suspension to a new centrifuge tube and centrifuge at 1000 rpm for 5 minutes. Adjust the cell concentration to 2×10^3 cells/mL, and then seed 300 μL of the cell suspension into each well of a 24-well plate containing cell climbing slides. Perform patch clamp experiments after the cells adhered properly.
The intracellular and extracellular solutions used were designed to mimic the cell physiological ionic composition.
Kv1.3 extracellular solution: 137 mM NaCl, 1 mM MgCl2·6H2O, 4 mM KCl, 1.8 mM CaCl2·2H2O, 10 mM D-Glucose, 10 mM HEPES, pH adjusted to 7.4 with NaOH.
Kv1.3 intracellular solution: 140 mM KCl, 10 mM EGTA, 5 mM MgCl2·6H2O, 10 mM HEPES, […], pH adjusted to 7.2 with KOH.
Test Compound Dissolution
• 1) The test compound was dissolved in DMSO to prepare a 30 mM stock solution. • 2) The stock solution of the test compound was serially diluted with DMSO to obtain secondary stock solutions at concentrations of 300 μM, 100 μM, 30 μM, 10 μM, and 3 μM. • 3) 10 μL of each secondary stock solution was diluted into 10 mL of extracellular solution to achieve final concentrations of 300 nM, 100 nM, 30 nM, 10 nM, and 3 nM for electrophysiological testing.
Kv1.3 potassium current data were collected and stored on a computer using Patchmaster software via an EPC-10 amplifier. • 1) The cell climbing slide was removed from the cell culture dish using forceps, immersed with extracellular solution, and placed into the bath chamber on the stage of an inverted microscope. • 2) Glass micropipettes were pulled using a P-1000 micropipette puller, filled one-third of their volume with intracellular solution, and then mounted onto an electrode holder. • 3) Using a motorized micromanipulator (Scientifica-Double 1U), the recording electrode was brought into contact with the cell surface. […] The positive pressure was removed, and a negative pressure of 0.5 cm H2O was applied. It was observed that the sealing resistance increased rapidly until it reached the gigaseal. When the sealing resistance between the recording electrode and the cell membrane was >1 GΩ, negative pressure was applied to rupture the membrane to form the whole-cell recording mode. After the ruptured membrane stabilized, the membrane capacitance (Cs) and series resistance (Rs) were compensated. • 4) Stimulation procedure: the cell was voltage-clamped at −80 mV, depolarized to 40 mV for a duration of 200 ms, and then repolarized to −80 mV. Currents were recorded every 10 s. • 5) Kv1.3 potassium channel currents were recorded at room temperature prior to drug application. After the control current value reached a steady state (indicated by overlapping of the four most consecutive current traces), cumulative drug application was performed. The negative control (0.1% DMSO) was applied first, followed by […] of the drugs.
Raw Kv1.3 current peak data were extracted from PatchMaster software. The current inhibition rate was calculated as follows: Peak current inhibition rate=((1−(Peak current compound)/(Peak current vehicle))). […]

human Kv1.3 (hKv1.3) channels, sequence (P22001 whole entry): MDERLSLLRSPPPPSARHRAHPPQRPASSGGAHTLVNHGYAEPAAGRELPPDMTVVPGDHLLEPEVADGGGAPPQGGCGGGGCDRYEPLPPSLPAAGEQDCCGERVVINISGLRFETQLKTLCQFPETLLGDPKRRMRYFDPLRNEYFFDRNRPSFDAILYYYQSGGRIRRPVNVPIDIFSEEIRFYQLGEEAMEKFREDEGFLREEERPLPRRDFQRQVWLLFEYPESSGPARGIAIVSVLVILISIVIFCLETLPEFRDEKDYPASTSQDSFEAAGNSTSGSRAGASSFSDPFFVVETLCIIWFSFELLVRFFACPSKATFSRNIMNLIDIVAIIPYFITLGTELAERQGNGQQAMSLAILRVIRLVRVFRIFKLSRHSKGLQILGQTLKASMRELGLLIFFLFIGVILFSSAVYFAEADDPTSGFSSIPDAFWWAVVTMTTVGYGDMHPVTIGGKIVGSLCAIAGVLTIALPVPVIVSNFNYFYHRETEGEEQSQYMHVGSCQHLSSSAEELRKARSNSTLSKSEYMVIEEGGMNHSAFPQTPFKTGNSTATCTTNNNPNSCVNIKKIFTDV

## COc1ccc(N2CC(c3c(O)ccc(Cl)c3Cl)CC2=S)cn1 (racemic) [Compound 165, rac-4-(2,3-dichloro-6-hydroxyphenyl)-1-(6-methoxypyridin-3-yl)pyrrolidine-2-thione]
  inhibition at 0.01 µM: 0 to 5%

## COc1cc(N2CC(c3c(O)ccc(Cl)c3Cl)CC2=S)ccn1 (racemic) [Compound 166, rac-4-(2,3-dichloro-6-hydroxyphenyl)-1-(2-methoxypyridin-4-yl)pyrrolidine-2-thione]
  inhibition at 0.01 µM: 0 to 5%

## Cc1cc(N2CC(c3c(O)ccc(Cl)c3Cl)CC2=S)ccn1 (racemic) [Compound 167, rac-4-(2,3-dichloro-6-hydroxyphenyl)-1-(2-methylpyridin-4-yl)pyrrolidine-2-thione]
  inhibition at 0.01 µM: 0 to 5%

## O=C1N(CCCO)CC(c2c(O)ccc(Cl)c2Cl)C1(F)F (racemic) [Compound 168, rac-4-(2,3-dichloro-6-hydroxyphenyl)-3,3-difluoro-1-(3-hydroxypropyl)pyrrolidin-2-one]
  inhibition at 0.01 µM: < 0%

## O=C1N(CCCO)CC(c2c(O)ccc(Cl)c2Cl)C12CC2 (racemic) [Compound 169, rac-7-(2,3-dichloro-6-hydroxyphenyl)-5-(3-hydroxypropyl)-5-azaspiro[2.4]heptan-4-one]
  inhibition at 0.01 µM: < 0%

## OCCCN1C[C@H](c2c(O)ccc(Cl)c2Cl)CC1=S [Compound 1-1, (S)-4-(2,3-Dichloro-6-hydroxyphenyl)-1-(3-hydroxypropyl)pyrrolidine-2-thione]
  IC50: 5 to 10 nM

## Cn1cncc1N1CC(c2c(O)ccc(Cl)c2Cl)CC1=S (stereo not shown) [Compound 42, 4-(2,3-Dichloro-6-hydroxyphenyl)-1-(1-methyl-1H-imidazol-5-yl)pyrrolidine-2-thione]
  inhibition at 0.01 µM: < 0%

## Cc1ncc(N2CC(c3c(O)ccc(Cl)c3Cl)CC2=S)s1 (stereo not shown) [Compound 43, 4-(2,3-Dichloro-6-hydroxyphenyl)-1-(2-methylthiazol-5-yl)pyrrolidine-2-thione]
  inhibition at 0.01 µM: 0 to 5%

## CS(=O)(=O)NCCCN1CC(c2c(O)ccc(Cl)c2Cl)CC1=O (stereo not shown) [Compound 76, N-(3-(4-(2,3-Dichloro-6-hydroxyphenyl)-2-oxopyrrolidin-1-yl)propyl)methanesulfonamide]
  inhibition at 0.01 µM: 0 to 5%

## NS(=O)(=O)CCN1CC(c2c(O)ccc(Cl)c2Cl)CC1=O (stereo not shown) [Compound 77, 2-(4-(2,3-Dichloro-6-hydroxyphenyl)-2-oxopyrrolidin-1-yl)ethane-1-sulfonamide]
  inhibition at 0.01 µM: 0 to 5%

## CS(=N)(=O)CCN1CC(c2c(O)ccc(Cl)c2Cl)CC1=O (stereo not shown) [Compound 78, 4-(2,3-Dichloro-6-hydroxyphenyl)-1-(2-(S-methylsulfonylimino)ethyl) pyrrolidin-2-one]
  inhibition at 0.01 µM: 0 to 5%

## CS(=O)(=O)CCN1CC(c2c(O)ccc(Cl)c2Cl)CC1=O (stereo not shown) [Compound 79, 4-(2,3-Dichloro-6-hydroxyphenyl)-1-(2-(methylsulfonyl)ethyl)pyrrolidin-2-one]
  inhibition at 0.01 µM: < 0%

## C=Cn1cc(N2CC(c3c(O)ccc(Cl)c3Cl)CC2=O)cn1 (stereo not shown) [Compound 90, 4-(2,3-Dichloro-6-hydroxyphenyl)-1-(1-vinyl-1H-pyrazol-4-yl)pyrrolidin-2-one]
  inhibition at 0.01 µM: 50 to 75%

## O=C1CC(c2c(O)ccc(Cl)c2Cl)CN1C1CC2(CNC2)C1 (stereo not shown) [Compound 100, 4-(2,3-Dichloro-6-hydroxyphenyl)-1-(2-azaspiro[3.3]heptan-6-yl)pyrrolidin-2-one]
  inhibition at 0.01 µM: ≥ 75%

## NC1CC2(C1)CC(N1CC(c3c(O)ccc(Cl)c3Cl)CC1=O)C2 (stereo not shown) [Compound 101, 1-(6-Aminospiro[3.3]heptan-2-yl)-4-(2,3-dichloro-6-hydroxyphenyl) pyrrolidin-2-one]
  inhibition at 0.01 µM: 50 to 75%

## CONCCCN1CC(c2c(O)ccc(Cl)c2Cl)CC1=O (stereo not shown) [Compound 104, 4-(2,3-Dichloro-6-hydroxyphenyl)-1-(3-(methoxyamino)propyl)pyrrolidin-2-one]
  inhibition at 0.01 µM: 0 to 5%

## CON(C)CCCN1CC(c2c(O)ccc(Cl)c2Cl)CC1=O (stereo not shown) [Compound 105, 4-(2,3-Dichloro-6-hydroxyphenyl)-1-(3-(methoxy(methyl)amino)propyl) pyrrolidin-2-one]
  inhibition at 0.01 µM: < 0%

## NC(=S)CCN1CC(c2c(O)ccc(Cl)c2Cl)CC1=O (stereo not shown) [Compound 113, 3-(4-(2,3-Dichloro-6-hydroxyphenyl)-2-oxopyrrolidin-1-yl)propanethioamide]
  inhibition at 0.01 µM: < 0%

## N=C(N)CCN1CC(c2c(O)ccc(Cl)c2Cl)CC1=O (stereo not shown) [Compound 114, 3-(4-(2,3-Dichloro-6-hydroxyphenyl)-2-oxopyrrolidin-1-yl)propionimide]
  inhibition at 0.01 µM: 0 to 5%

## O=C(CCN1CC(c2c(O)ccc(Cl)c2Cl)CC1=O)NO (stereo not shown) [Compound 115, 3-(4-(2,3-Dichloro-6-hydroxyphenyl)-2-oxopyrrolidin-1-yl)-N-hydroxypropionamide]
  inhibition at 0.01 µM: 25 to 50%

## CN(O)C(=O)CCN1CC(c2c(O)ccc(Cl)c2Cl)CC1=O (stereo not shown) [Compound 116, 3-(4-(2,3-Dichloro-6-hydroxyphenyl)-2-oxopyrrolidin-1-yl)-N-hydroxy-N-methylpropionamide]
  inhibition at 0.01 µM: < 0%

## CONC(=O)CCN1CC(c2c(O)ccc(Cl)c2Cl)CC1=O (stereo not shown) [Compound 117, 3-(4-(2,3-Dichloro-6-hydroxyphenyl)-2-oxopyrrolidin-1-yl)-N-methoxypropionamide]
  inhibition at 0.01 µM: 0 to 5%

## O=C1CC(c2c(O)ccc(Cl)c2Cl)CN1CCNO (stereo not shown) [Compound 118, 4-(2,3-Dichloro-6-hydroxyphenyl)-1-(2-(hydroxyamino)ethyl)pyrrolidin-2-one]
  inhibition at 0.01 µM: 25 to 50%

## NOCCN1CC(c2c(O)ccc(Cl)c2Cl)CC1=O (stereo not shown) [Compound 119, 1-(2-(Aminooxy)ethyl)-4-(2,3-dichloro-6-hydroxyphenyl)pyrrolidin-2-one]
  inhibition at 0.01 µM: 0 to 5%

## NOCCCN1CC(c2c(O)ccc(Cl)c2Cl)CC1=O (stereo not shown) [Compound 120, 1-(3-(Aminooxy)propyl)-4-(2,3-dichloro-6-hydroxyphenyl)pyrrolidin-2-one]
  inhibition at 0.01 µM: < 0%

## OCC(F)(F)CN1C[C@H](c2c(O)ccc(Cl)c2Cl)CC1=S [Compound 121-1, (S)-4-(2,3-Dichloro-6-hydroxyphenyl)-1-(2,2-difluoro-3-hydroxypropyl)pyrrolidine-2-thione]
  IC50: 10 to 30 nM

## Oc1ccc(Cl)c(Cl)c1[C@@H]1CC(=S)N([C@H]2C[C@H](O)C2)C1 [Compound 124-1, (S)-4-(2,3-Dichloro-6-hydroxyphenyl)-1-((1r,3r)-3-hydroxycyclobutyl)pyrrolidine-2-thione]
  IC50: 5 to 10 nM

## Oc1ccc(Cl)c(Cl)c1[C@@H]1CC(=S)N(C[C@H]2C[C@H](O)C2)C1 [Compound 129-1, (S)-4-(2,3-Dichloro-6-hydroxyphenyl)-1-(((1r,3r)-3-hydroxycyclobutyl)methyl)pyrrolidine-2-thione]
  IC50: ≤ 5 nM

## OCCCCN1C[C@H](c2c(O)ccc(Cl)c2Cl)CC1=S [Compound 130-1, (S)-4-(2,3-Dichloro-6-hydroxyphenyl)-1-(4-hydroxybutyl)pyrrolidine-2-thione]
  IC50: ≤ 5 nM

## Oc1ccc(Cl)c(Cl)c1[C@@H]1CC(=S)N(c2cnn3c2CCC3)C1 [Compound 159-1, (S)-4-(2,3-Dichloro-6-hydroxyphenyl)-1-(5,6-dihydro-4H-pyrrolo[1,2-b]pyrazol-3-yl)pyrrolidine-2-thione]
  IC50: 5 to 10 nM

## O=C1C[C@@H](c2c(O)ccc(Cl)c2Cl)CN1CCCO [Compound W1, reference compound]
  IC50: 10 to 30 nM
  inhibition at 0.01 µM: 25 to 50%

## NCCCN1C[C@H](c2c(O)ccc(Cl)c2Cl)CC1=O [Compound W2, reference compound]
  IC50: 10 to 30 nM

## (S)-4-(2,3-Dichloro-6-hydroxyphenyl)-1-(1- methyl-1H-pyrazol-4-yl)pyrrolidine-2- thione [Compound 40-1]
  IC50: ≤ 5 nM
